By IC50 is commonly meant the midpoint of a concentration-inhibition curve.

Sequence of Recombinant human HSD17B13 (Q7Z5P4 20-300): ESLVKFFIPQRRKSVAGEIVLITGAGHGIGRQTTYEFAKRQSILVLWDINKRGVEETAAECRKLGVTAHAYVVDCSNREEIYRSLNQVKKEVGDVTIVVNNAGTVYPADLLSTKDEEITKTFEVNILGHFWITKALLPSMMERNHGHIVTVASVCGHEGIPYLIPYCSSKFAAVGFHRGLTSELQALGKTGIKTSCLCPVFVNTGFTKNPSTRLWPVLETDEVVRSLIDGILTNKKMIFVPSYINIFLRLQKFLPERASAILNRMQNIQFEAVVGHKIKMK

This test addresses Recombinant human HSD17B13 (Homo sapiens (Human), UniProt Q7Z5P4). As to the kind of experiment: HSD17B13 rapid-fire mass spectrometry assay (RF/MS assay). In kind it is biochemical. As to conditions: inhibition of HSD17B13; LTB4 10 μM, NAD+ 0.5 mM, RT 3 h; IC50 ranges A-E. The essentials: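 Sf9-expressed human HSD17B13 (80 nM) with 10 μM LTB4 and 0.5 mM NAD+, incubated with compound (0–100 μM) for 3 h at RT in Tris pH 7.5/BSA/Tween-20. After formic acid quench, LTB4 conversion to 12-oxo-LTB4 measured by RapidFire MS/MS. IC50 from normalised residual activity, duplicates.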
Consider `COc1cc(C(=O)O)c(F)cc1NS(=O)(=O)c1csc(-c2ccc([C@H]3CC[C@H](C(C)(C)C)CC3)cc2C(F)(F)F)n1` [Example 780], for which the IC50 was below 100 nM.
`O=C(O)c1ccc2sc(NS(=O)(=O)c3cnc(-c4ccc(F)cc4)s3)nc2c1` [Example 388, 2-((2-(4-fluorophenyl)thiazole)-5-sulfonamido)benzo[d]thiazole-5-carboxylic acid]: the IC50 lay within 1000 to 100000 nM.
For `COc1cc(C(=O)O)c(F)cc1NS(=O)(=O)c1csc(C#Cc2ccc(O)cc2)n1` [Example 229], the IC50 was below 100 nM.
On to `O=C(O)c1cc(NS(=O)(=O)c2cnc(-c3ccc(F)cc3)s2)cs1` [Example 75], for which the half-maximal inhibitory concentration (IC50) was 1000 to 100000 nM.
Regarding `COc1cc(C(=O)O)ccc1NS(=O)(=O)c1csc(C#Cc2cccc(Cl)c2)n1` [Example 197], the IC50 was below 100 nM.
To `O=C(O)c1ccc2cc(NS(=O)(=O)c3cnc(-c4ccc(F)cc4)s3)ccc2c1` [Example 387, 6-((2-(4-fluorophenyl)thiazole)-5-sulfonamido)-2-naphthoic acid] belongs 1000 to 100000 nM.
On to `COc1cc(C(=O)O)ccc1NS(=O)(=O)c1csc(-c2cccnc2)n1` [Example 143], for which the IC50 is 1000 to 100000 nM.
In the case of `COc1cc(C(=O)O)c(F)cc1NS(=O)(=O)c1csc(-c2ccc(C3CCC(C)(C)CC3)nc2)n1` [Example 553], the IC50 lay in the range of 100 to 500 nM.
For the compound `CC1(C)CCC(c2ccc(-c3nc(S(=O)(=O)Nc4ccc(C(=O)O)cc4)cs3)cc2)CC1` [Example 660], the IC50 is 100 to 500 nM.
On to `COc1cc(C(=O)O)c(F)cc1NS(=O)(=O)c1csc(-c2ccc([C@H]3CC[C@@H](C(C)(C)C)CC3)cc2)n1` [Example 761], for which the IC50 was 100 to 500 nM.
To `COc1cc(C(=O)O)ccc1NS(=O)(=O)c1csc(N2CCN(c3ccc(-c4ccccc4)cc3)CC2)n1` [Example 288] belongs 100 to 500 nM; to `O=S(=O)(Nc1ccc(O)cc1)c1cnc(-c2ccc(F)cc2)s1` [Example 108], 1000 to 100000 nM; to `COc1cc(C(=O)O)c(F)cc1NS(=O)(=O)c1csc(-c2ccc([C@H]3CC[C@@H](C(C)C)CC3)c(F)c2F)n1` [Example 772], below 100 nM.
To `CC[C@H]1CC[C@H](c2ccc(-c3nc(S(=O)(=O)Nc4ccc(C(=O)O)cc4OC)cs3)cc2)CC1` [Example 352] belongs below 100 nM.
Regarding `COc1cc(C(=O)O)c(F)cc1NS(=O)(=O)c1csc(-c2ccc(C3=CCC(C)(C)CC3)c(F)c2OC)n1` [Example 546], the IC50 is below 100 nM.
Take `COc1cc(C(=O)O)ccc1NS(=O)(=O)c1cnn(-c2ccc(F)cc2)c1C` [Example 80]: the IC50 was in the range of 1000 to 100000 nM.
With `COc1cc(C(=O)O)c(F)cc1NS(=O)(=O)c1csc(-c2ccc([C@H]3CC[C@H](C(F)(F)F)CC3)c(OC)c2F)n1` [Example 605], the IC50 is below 100 nM.
In the case of `Cc1sc(-c2ccc(F)cc2)nc1S(=O)(=O)Nc1ccc(C(=O)O)cc1` [Example 55, 4-((2-(4-fluorophenyl)-5-methylthiazole)-4-sulfonamido)benzoic acid], the IC50 lay in the range of 1000 to 100000 nM.
With `COc1cc(-c2nnn[nH]2)ccc1NS(=O)(=O)c1cnc(-c2ccc(F)cc2)s1` [Example 135], the IC50 was 1000 to 100000 nM.
To `COc1cc(C(=O)O)ccc1NS(=O)(=O)c1csc(-c2c(F)ccc3ccccc23)n1` [Example 153] belongs 100 to 500 nM; to `COc1cc(C(=O)O)c(F)cc1NS(=O)(=O)c1csc(-c2ccc(-c3csc4ccccc34)cc2)n1` [Example 636], 100 to 500 nM; to `COc1cc(C(=O)O)c(F)cc1NS(=O)(=O)c1cc(-c2ccc([C@H]3CC[C@H](C(F)(F)F)CC3)cc2)ccn1` [Example 641], 100 to 500 nM.
To `COc1cc(C(=O)O)ccc1NS(=O)(=O)N1Cc2nc(C3=CCC(c4ccccc4)CC3)sc2C1` (stereo not shown) [Example 359, 3-methoxy-4-((2-(1,2,3,6-tetrahydro-[1,1′-biphenyl]-4-yl)-5,6-dihydro-4H-pyrrolo[3,4-d]thiazole)-5-sulfonamido)benzoic acid] belongs below 100 nM; to `COc1cc(C(=O)O)ccc1NS(=O)(=O)c1coc2ccccc12` [Example 138], 1000 to 100000 nM; to `COc1cc(C(=O)O)c(F)cc1NS(=O)(=O)c1csc(-c2ccc(-c3ccc(C4CC4)cc3C(F)(F)F)cc2C(F)(F)F)n1` [Example 757], below 100 nM.
Next, `COc1cc(C(=O)O)ccc1NS(=O)(=O)N1Cc2ccc(-c3ccc(C4CCCCC4)cc3)cc2C1` [Example 364]: 500 to 1000 nM.
Turning to `COc1cc(C(=O)O)c(F)cc1NS(=O)(=O)c1csc(-c2ccc(C3=CCC(C(F)(F)F)CC3)c(C)c2F)n1` (stereo not shown) [Example 813], the IC50 was below 100 nM.
Consider `COc1cc(C(=O)O)ccc1NS(=O)(=O)c1ccc(-c2ccc(F)cc2)c(OC)c1` [Example 324], for which the IC50 lay in the range of 100 to 500 nM.
On to `COc1cc(C(=O)O)ccc1NS(=O)(=O)c1ccc(-c2ccc(C3(O)CCC(C)(C)CC3)cc2)s1` [Example 430, 4-((5-(4-(1-hydroxy-4,4-dimethylcyclohexyl)phenyl)thiophene)-2-sulfonamido)-3-methoxybenzoic acid], for which the IC50 is 100 to 500 nM.
Consider `COc1cc(C(=O)O)ccc1NS(=O)(=O)c1nc(-c2ccc(F)cc2)sc1-c1ccccc1` [Example 306], for which the IC50 is 1000 to 100000 nM.
Consider `O=C(O)c1ccc(NS(=O)(=O)c2cnc(-c3ccc(F)cc3)s2)c(OC(F)(F)F)c1` [Example 48], for which the half-inhibitory concentration (IC50) is 1000 to 100000 nM.
On to `COc1cc(C(=O)O)c(F)cc1NS(=O)(=O)c1csc(-c2ccc(-c3ccc(C45CC6C[C@H](C4)C[C@H](C6)C5)cc3)c(OC)c2)n1` [Example 743], for which the IC50 was 100 to 500 nM.
To `COc1nc(C(=O)O)ccc1NS(=O)(=O)c1cnc(-c2ccc(F)cc2)s1` [Example 74] belongs 1000 to 100000 nM; to `COc1cc(C(=O)O)ccc1NS(=O)(=O)c1csc(N2CCN(C3CCCC3)CC2)n1` [Example 265], 1000 to 100000 nM.
On to `COc1cc(O)ccc1NS(=O)(=O)c1cnc(-c2ccc(F)cc2)s1` [Example 110], for which the IC50 is 1000 to 100000 nM.
Next, `COc1cc(C(=O)O)ccc1NS(=O)(=O)c1csc(C2CCC(C)(C)CC2)n1` [Example 457, 4-((2-(4,4-dimethylcyclohexyl)thiazole)-4-sulfonamido)-3-methoxybenzoic acid]: 500 to 1000 nM; `COc1cc(C(=O)O)ccc1NS(=O)(=O)c1csc(C#Cc2ccc(F)c(OC(F)(F)F)c2)n1` [Example 393, 4-((2-((4-fluoro-3-(trifluoromethoxy)phenyl)ethynyl)thiazole)-4-sulfonamido)-3-methoxybenzoic acid]: below 100 nM.
On to `COc1ccccc1C#Cc1nc(S(=O)(=O)Nc2ccc(C(=O)O)cc2OC)cs1` [Example 195], for which the IC50 is below 100 nM.
Turning to `COc1cc(C(=O)O)ccc1NS(=O)(=O)c1csc(-c2cccc(F)c2)n1` [Example 95], the IC50 lay in the range of 100 to 500 nM.
For `COc1cc(C(=O)O)ccc1NS(=O)(=O)N1CCN(c2ccccc2)CC1` [Example 312], the IC50 was in the range of 1000 to 100000 nM.
In the case of `COc1cc(C(=O)O)c(C2CC2)cc1NS(=O)(=O)c1csc(-c2ccc(C3CCC(C)(C)CC3)cc2C(F)(F)F)n1` [Example 699], the IC50 was 1000 to 100000 nM.
Consider `COc1cc(C(=O)O)ccc1S(=O)(=O)Nc1csc(-c2ccccc2)n1` [Example 103], for which the IC50 is 500 to 1000 nM.
Next, `COc1cc(C(=O)O)c(F)cc1NS(=O)(=O)c1csc(-c2ccc([C@H]3CC[C@H](C(C)C)CC3)c(C)c2F)n1` [Example 808]: below 100 nM.
Take `COc1cc(C(=O)O)ccc1NS(=O)(=O)c1csc(-c2ccccc2C(F)(F)F)n1` [Example 127]: the IC50 lay in the range of 500 to 1000 nM.
Turning to `CC(C)(C)c1ccc(S(=O)(=O)NC(=O)OCc2ccc(NS(=O)(=O)c3cnc(-c4ccc(F)cc4)s3)cc2)cc1` [Example 38, 4-((2-(4-fluorophenyl)thiazole)-5-sulfonamido)benzyl ((4-(tert-butyl)phenyl)sulfonyl)carbamate], the IC50 fell in the range of 1000 to 100000 nM.
`COc1cc(C(=O)O)ccc1NS(=O)(=O)c1ccc(-c2ccc3c(c2)C(C)(C)CCC3(C)C)cc1F` [Example 339]: the IC50 was 500 to 1000 nM.
On to `CC[C@H]1CC[C@H](c2ccc(-c3cccc(S(=O)(=O)Nc4cc(F)c(C(=O)O)cc4OC)c3F)cc2)CC1` [Example 501], for which the IC50 was below 100 nM.
Regarding `COc1cc(C(=O)O)ccc1NS(=O)(=O)c1csc(C#Cc2ccc(N(C)C)cc2)n1` [Example 210], the IC50 is below 100 nM.
Next, `COc1cc(C(=O)O)c(F)cc1NS(=O)(=O)c1csc(-c2ccc(C(F)(F)C(F)(F)F)cc2)n1` [Example 745]: 100 to 500 nM; `COc1cc(C(=O)O)ccc1NS(=O)(=O)c1csc(C#Cc2ccc(C(C)(C)C)cc2)n1` [Example 188]: below 100 nM; `COc1cc(C(=O)O)ccc1NS(=O)(=O)N1CCCC(Oc2ccccc2)C1` (stereo not shown) [Example 320, 3-methoxy-4-((3-phenoxypiperidine)-1-sulfonamido)benzoic acid]: 1000 to 100000 nM.
As to `COc1cc(C(=O)O)c(F)cc1NS(=O)(=O)c1cnn(-c2ccc(C3CCCCC3)cc2)c1` [Example 656], the IC50 lay in the range of 100 to 500 nM.

(Values after US12384753B2, “17-beta-hydroxysteroid dehydrogenase type 13 inhibitors and methods of use thereof” (Enanta Pharmaceuticals, Inc., priority 2021, dated 2025).)
